Tested on: Klebsiella pneumoniae isolates
Assay: MIC of cephalosporins alone or with clavulanate/tazobactam
Format: cell-based
Settings: clavulanate 2:1, tazobactam 4 μg/mL

## Nc1nc(/C(=C/CC(=O)O)C(=O)N[C@@H]2C(=O)N3C(C(=O)O)=CCS[C@H]23)cs1 [Ceftibuten, ceftibuten]
AKPN1159 (SHV-12)
  MIC: 4 µg/mL
AKPN1161 (SHV-7)
  MIC: 2 µg/mL
AKPN1162 (CTX-M-15, SHV-12)
  MIC: 32 µg/mL
AKPN1166 (CTX-M-14, SHV-12)
  MIC: 4 µg/mL
AKPN1167 (SHV-2)
  MIC: 2 µg/mL

Reference: patent US20180015100A1, “COMBINATION PRODUCTS FOR THE TREATMENT OF BACTERIAL INFECTIONS AND METHODS OF PRODUCING OR DOSING OF SAME” (priority 2016, published 2018)
